“And” between values parts separate entries of the source, which are not always exact repeats. Equal values may be shown once.
Key:
[1] = Brain and prostate distribution after single IV in rats; conditions: rat, in vivo, 1 mg/kg; for concentration at 30 min / concentration at 120 min: single IV 1 mg/kg
CYP3A = CYP3A induction in human hepatocytes; type: in vitro ADME; conditions: for CYP 3A induction, Positive control, %: human hepatocytes, 48 hours
GABA receptors = conditions: read-out: IC50, GABA receptors; ref [6]; cited from earlier work
LnCaP-Z2 tumors = assay: LnCaP-Z2 xenograft antitumor efficacy; type: in vivo, male CB17-SCID mice; conditions: 50 mg/kg once daily
[2] = Drug concentration in plasma and xenograft tumor after 21-day dosing; conditions: male, CB17-SCID, mouse, in vivo, 50 mg/kg

Structure (SMILES)	Kp at 30 min [1]	Kp at 120 min [1]	concentration at 30 min ([1]; Prostate)	concentration at 120 min ([1]; Prostate)	concentration at 30 min ([1]; brain)	concentration at 120 min ([1]; brain)	concentration at 30 min ([1]; plasma)	concentration at 120 min ([1]; plasma)	CYP3A induction, in words (CYP3A; 1uM)	CYP 3A induction, Positive control, % (CYP3A; 1 uM)	CYP 3A induction, Positive control, % (CYP3A; 10 uM)	IC50 (GABA receptors)	antitumor efficacy, in words (LnCaP-Z2 tumors)	Kp at 24 h [2]	concentration at 24 h [2]
CNC(=O)c1ccc(N2C(=S)N(c3cnc(C#N)c(C(F)(F)F)c3)C(=O)C23CCC3)cc1F [ARN-509]	1.94 ± 0.24	3.15 ± 0.94	487 ± 73 ng/g	482 ± 120 ng/g	241 ± 21 ng/g	176 ± 31 ng/g	251 ± 29 ng/mL	153 ± 10 ng/mL	still active	16.3±2.5%	102.7±13.0%	3000 nM			
CC(O)(CS(=O)(=O)c1ccc(F)cc1)C(=O)Nc1ccc(C#N)c(C(F)(F)F)c1 (stereo not drawn) [Bicalutamide, reference compound]													less effective	2.5 ± 1.36	3250 ng/mL and 8740 ng/g

Reference: PMC3909768 (Journal of Cancer, 2014)
